# Experimental data reported in patent publication US20240246967A1, “AXL COMPOUNDS” (ARCUS BIOSCIENCES, INC., priority 2021, published 2024).
# Target: T1, Axl (Homo sapiens, UniProt P30530)
# T1 sequence (P30530 26-894): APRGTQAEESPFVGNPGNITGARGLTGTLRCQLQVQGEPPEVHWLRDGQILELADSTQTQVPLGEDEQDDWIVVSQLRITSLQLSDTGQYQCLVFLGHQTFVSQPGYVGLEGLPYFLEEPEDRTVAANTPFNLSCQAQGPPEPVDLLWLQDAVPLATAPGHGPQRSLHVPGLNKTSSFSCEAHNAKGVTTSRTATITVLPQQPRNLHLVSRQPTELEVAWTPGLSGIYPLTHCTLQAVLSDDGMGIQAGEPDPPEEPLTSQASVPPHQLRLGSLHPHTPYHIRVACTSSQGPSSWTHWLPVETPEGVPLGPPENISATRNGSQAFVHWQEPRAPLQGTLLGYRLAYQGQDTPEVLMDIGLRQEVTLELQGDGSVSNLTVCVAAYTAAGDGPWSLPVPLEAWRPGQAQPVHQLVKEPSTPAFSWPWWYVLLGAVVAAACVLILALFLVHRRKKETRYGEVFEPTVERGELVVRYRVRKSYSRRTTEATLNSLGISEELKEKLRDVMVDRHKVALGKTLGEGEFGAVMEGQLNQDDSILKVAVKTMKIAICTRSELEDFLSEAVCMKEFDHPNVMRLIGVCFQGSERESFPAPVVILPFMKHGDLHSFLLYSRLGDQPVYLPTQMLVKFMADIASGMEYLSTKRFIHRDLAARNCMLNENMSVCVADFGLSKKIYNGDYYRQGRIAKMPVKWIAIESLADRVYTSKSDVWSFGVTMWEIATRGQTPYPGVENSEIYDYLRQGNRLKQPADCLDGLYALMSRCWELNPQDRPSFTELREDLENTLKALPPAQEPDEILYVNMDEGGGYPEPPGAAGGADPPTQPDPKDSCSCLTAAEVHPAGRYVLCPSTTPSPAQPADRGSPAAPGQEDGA
# Assay: Axl NanoBRET intracellular kinase assay (intracellular binding, Cell Binding)
# Parameters: host or cells: HEK-293
# Conditions: HEK-293 cells transfected with Axl-NanoLuc fusion vector; 0.35 μM K-5 NanoBRET tracer
# Experimental: Axl NanoBRET™ intracellular kinase assay (Promega, N2540) was performed according to manufacturer's recommendation. In brief, HEK-293 cells are transiently transfected with Axl-NanoLuc fusion vector (Promega, NV1071), utilizing Fugene HD transfection reagent (Promega, E2311) a day before experiment following manufacturer's recommendation.
# The day of the assay, the cells were collected and resuspended in Opti-MEM media (ThermoFisher, 31985070) at 2e5 cells/mL concentration. Testing compounds were serial diluted and dispensed into a white 384 well polystyrene plate at 200 nL in 100% DMSO. 40 μL of resuspended cells is then added per well for a final condition of 8K cells/well with 0.5% DMSO. After one-hour compound pre-incubation at 37° C. and 5% CO2, cells were further incubated with 0.35 μM K-5 NanoBRET tracer for two-hours at 37° C. and 5% CO2. […] of 3× substrate plus Inhibitor solution was prepared according to kits manual and added to the cells followed by a 30 second pulse centrifugation spin. The plate was then immediately read utilizing an Envision (Perkin Elmer) plate reader. The BRET signal is measured by taking the ratio of the emissions reading at 610 nm and 450 nm. Compound binding is based on the decrease BRET signal caused by the displacement of the K-5 tracer. […] IC50 value of compounds was determined by 4-parameter non-linear regression fitting of percent activity in GraphPad Prism software.
row,Compound,IC50
1,"CC1(N2CCC[C@H]2CO)CCc2ccc(-c3cnc4[nH]nc(-c5ccc(S(=O)(=O)C6CC6)cc5)c4c3)cc2CC1 (stereo partly drawn) [Example 4, [(2S)-1-(2-{3-[4-(Cyclopropanesulfonyl)phenyl]-1H-pyrazolo[3,4-b]pyridin-5-yl}-7-methyl-6,7,8,9-tetrahydro-5H-benzo[7]annulen-7-yl)pyrrolidin-2-yl]methanol]",< 100 nM
2,"C[C@H]1CCCN1C1(C)CCc2ccc(-c3cnc4[nH]nc(-c5ccc(S(=O)(=O)C6CC6)cc5)c4c3)cc2CC1 (stereo partly drawn) [Example 5, (2S)-1-(2-{3-[4-(Cyclopropanesulfonyl)phenyl]-1H-pyrazolo[3,4-b]pyridin-5-yl}-7-methyl-6,7,8,9-tetrahydro-5H-benzo[7]annulen-7-yl)-2-methylpyrrolidine]",< 100 nM
3,"CC1(N2CCC2)CCc2ccc(-c3cnc4[nH]nc(-c5ccc(S(=O)(=O)C6CC6)cc5)c4c3)cc2CC1 (stereo not shown) [Example 7, 1-(2-{3-[4-(Cyclopropanesulfonyl)phenyl]-1H-pyrazolo[3,4-b]pyridin-5-yl}-7-methyl-6,7,8,9-tetrahydro-5H-benzo[7]annulen-7-yl)azetidine]",< 100 nM
4,"CC(C)(O)c1ccc(-c2n[nH]c3ncc(-c4ccc5c(c4)CCC(N4CCCC4)CC5)cc23)cn1 (stereo not shown) [Example 9, 2-(5-{5-[7-(Pyrrolidin-1-yl)-6,7,8,9-tetrahydro-5H-benzo[7]annulen-2-yl]-1H-pyrazolo[3,4-b]pyridin-3-yl}pyridin-2-yl)propan-2-ol]",< 100 nM
5,"CC(C)(O)c1ccc(-c2n[nH]c3ncc(-c4ccc5c(c4)CCC(N4CCCC4)CC5)cc23)cc1Cl (stereo not shown) [Example 11, 2-(2-Chloro-4-{5-[7-(pyrrolidin-1-yl)-6,7,8,9-tetrahydro-5H-benzo[7]annulen-2-yl]-1H-pyrazolo[3,4-b]pyridin-3-yl}phenyl)propan-2-ol]",< 100 nM
6,"CC(C)(O)c1ccc(-c2n[nH]c3ncc(-c4ccc5c(c4)CCN(C4CCCC4)CC5)cc23)cc1Cl [Example 12, 2-{2-Chloro-4-[5-(3-cyclopentyl-2,3,4,5-tetrahydro-1H-3-benzazepin-7-yl)-1H-pyrazolo[3,4-b]pyridin-3-yl]phenyl}propan-2-ol]",100 to 1000 nM
7,"CC(C)(O)c1ccc(-c2n[nH]c3ncc(-c4ccc5c(c4)CCN(C4CCCC4)CC5)cc23)cc1C(F)(F)F [Example 16, 2-{4-[5-(3-Cyclopentyl-2,3,4,5-tetrahydro-1H-3-benzazepin-7-yl)-1H-pyrazolo[3,4-b]pyridin-3-yl]-2-(trifluoromethyl)phenyl}propan-2-ol]",100 to 1000 nM
8,"C[C@@H]1CCCN1C1CCc2ccc(-c3cnc4[nH]nc(-c5ccc(C(C)(C)O)c(C(F)(F)F)c5)c4c3)cc2CC1 (stereo partly drawn) [Example 20, 2-[4-(5-{7-[(2R)-2-Methylpyrrolidin-1-yl]-6,7,8,9-tetrahydro-5H-benzo[7]annulen-2-yl}-1H-pyrazolo[3,4-b]pyridin-3-yl)-2-(trifluoromethyl)phenyl]propan-2-ol]",< 100 nM
9,"CC(C)(O)c1ccc(-c2n[nH]c3ncc(-c4ccc5c(c4)CCC(N4CCC[C@@H]4CO)CC5)cc23)cc1Cl (stereo partly drawn) [Example 21, 2-[2-Chloro-4-(5-{7-[(2R)-2-(hydroxymethyl)pyrrolidin-1-yl]-6,7,8,9-tetrahydro-5H-benzo[7]annulen-2-yl}-1H-pyrazolo[3,4-b]pyridin-3-yl)phenyl]propan-2-ol]",< 100 nM
10,"CS(=O)(=O)N1CCC(c2n[nH]c3ncc(-c4ccc5c(c4)CCC(N4CCCC4)CC5)cc23)CC1 (stereo not shown) [Example 23, 1-Methanesulfonyl-4-{5-[7-(pyrrolidin-1-yl)-6,7,8,9-tetrahydro-5H-benzo[7]annulen-2-yl]-1H-pyrazolo[3,4-b]pyridin-3-yl}piperidine]",100 to 1000 nM
11,"O=S(=O)(c1ccc(-c2n[nH]c3ncc(-c4ccc5c(c4)CCN(CC4CCOC4)CC5)cc23)cc1)C1CC1 (stereo not shown) [Example 27, 7-{3-[4-(Cyclopropanesulfonyl)phenyl]-1H-pyrazolo[3,4-b]pyridin-5-yl}-3-[(oxolan-3-yl)methyl]-2,3,4,5-tetrahydro-1H-3-benzazepine]",100 to 1000 nM
12,"CS(=O)(=O)c1ccc(-c2n[nH]c3ncc(-c4ccc5c(c4)CCN(C4CCCC4)CC5)cc23)cc1F [Example 32, 3-Cyclopentyl-7-(3-(3-fluoro-4-(methylsulfonyl)phenyl)-1H-pyrazolo[3,4-b]pyridin-5-yl)-2,3,4,5-tetrahydro-1H-benzo[d]azepine]",100 to 1000 nM

# The next lines start with the values.
row,IC50,Compound
1,100 to 1000 nM,"CCC1(N2CCC[C@H]2C)CCc2ccc(-c3cnc4[nH]nc(-c5ccc(S(=O)(=O)C6CC6)cc5)c4c3)cc2CC1 (stereo partly drawn) [Example 6, (2R)-1-(2-{3-[4-(Cyclopropanesulfonyl)phenyl]-1H-pyrazolo[3,4-b]pyridin-5-yl}-7-ethyl-6,7,8,9-tetrahydro-5H-benzo[7]annulen-7-yl)-2-methylpyrrolidine]"
2,> 1000 nM,"C[C@@H]1CCCN1C1(C)CCc2ccc(-c3cnc4[nH]nc(-c5ccc(S(=O)(=O)C(F)(F)F)cc5)c4c3)cc2CC1 (stereo partly drawn) [Example 8, (2R)-2-Methyl-1-{7-methyl-2-[3-(4-trifluoromethanesulfonylphenyl)-1H-pyrazolo[3,4-b]pyridin-5-yl]-6,7,8,9-tetrahydro-5H-benzo[7]annulen-7-yl}pyrrolidine]"
3,100 to 1000 nM,"CC(C)(O)c1ccc(-c2n[nH]c3ncc(-c4ccc5c(c4)CCN(C4CCCC4)CC5)cc23)cn1 [Example 10, 2-{5-[5-(3-Cyclopentyl-2,3,4,5-tetrahydro-1H-3-benzazepin-7-yl)-1H-pyrazolo[3,4-b]pyridin-3-yl]pyridin-2-yl}propan-2-ol]"
4,100 to 1000 nM,"CC(C)(O)c1ccc(-c2n[nH]c3ncc(-c4ccc5c(c4)CCN(C4CCCC4)CC5)cc23)c(F)c1 [Example 17, 2-{4-[5-(3-Cyclopentyl-2,3,4,5-tetrahydro-1H-3-benzazepin-7-yl)-1H-pyrazolo[3,4-b]pyridin-3-yl]-3-fluorophenyl}propan-2-ol]"
5,< 100 nM,"C[C@@H]1CCCN1C1(C)CCc2ccc(-c3cnc4[nH]nc(-c5ccc(C(C)(C)O)nc5)c4c3)cc2CC1 (stereo partly drawn) [Example 22, 2-[5-(5-{7-Methyl-7-[(2R)-2-methylpyrrolidin-1-yl]-6,7,8,9-tetrahydro-5H-benzo[7]annulen-2-yl}-1H-pyrazolo[3,4-b]pyridin-3-yl)pyridin-2-yl]propan-2-ol]"
6,< 100 nM,"C[C@H]1CCCN1C1CCc2ccc(-c3cnc4[nH]nc(-c5ccc(S(=O)(=O)C6CC6)cc5)c4c3)cc2CC1 (stereo partly drawn) [Example 24, 3-(4-(Cyclopropylsulfonyl)phenyl)-5-(7-((S)-2-methylpyrrolidin-1-yl)-6,7,8,9-tetrahydro-5H-benzo[7]annulen-2-yl)-1H-pyrazolo[3,4-b]pyridine]"
7,< 100 nM,"C[C@@H]1CCCN1C1(C)CCc2ccc(-c3cnc4[nH]nc(-c5ccc(S(=O)(=O)C6CC6)c(F)c5)c4c3)cc2CC1 (stereo partly drawn) [Example 25, (2R)-1-(2-{3-[4-(Cyclopropanesulfonyl)-3-fluorophenyl]-1H-pyrazolo[3,4-b]pyridin-5-yl}-7-methyl-6,7,8,9-tetrahydro-5H-benzo[7]annulen-7-yl)-2-methylpyrrolidine]"
8,100 to 1000 nM,"O=S(=O)(c1ccc(-c2n[nH]c3ncc(-c4ccc5c(c4)CCN(C4CCOCC4)CC5)cc23)cc1)C1CC1 [Example 26, 7-{3-[4-(Cyclopropanesulfonyl)phenyl]-1H-pyrazolo[3,4-b]pyridin-5-yl}-3-(oxan-4-yl)-2,3,4,5-tetrahydro-1H-3-benzazepine]"
9,100 to 1000 nM,"CS(=O)(=O)c1ccc(-c2n[nH]c3ncc(-c4ccc5c(c4)CCN(C4CCCC4)CC5)cc23)cc1 [Example 30, 3-Cyclopentyl-7-(3-(4-(methylsulfonyl)phenyl)-1H-pyrazolo[3,4-b]pyridin-5-yl)-2,3,4,5-tetrahydro-1H-benzo[d]azepine]"
10,100 to 1000 nM,"CS(=O)(=O)c1ccc(-c2n[nH]c3ncc(-c4ccc5c(c4)CCN(C4CCCC4)CC5)cc23)cc1Cl [Example 31, 7-(3-(3-Chloro-4-(methylsulfonyl)phenyl)-1H-pyrazolo[3,4-b]pyridin-5-yl)-3-cyclopentyl-2,3,4,5-tetrahydro-1H-benzo[d]azepine]"
